Test results published in patent US8450313B2, “2,3-diaryl- or heteroaryl-substituted 1,1,1-trifluoro-2-hydroxypropyl compounds” (Hoffmann-La Roche Inc., priority 2009, dated 2013).

target: T1, full length human recombinant glucocorticoid receptor (Homo sapiens, UniProt P04150); assay: Glucocorticoid Receptor Binding Assay (Glucocorticoid Receptor Competitor Assay far red kit, fluorescence polarization); conditions: competition with fluorescent GR ligand Fluormone GS Far Red, 3 hours at 22° C., pH 7.4; Ki calculated from IC50 by Cheng-Prusoff
T1 construct: It contains some partially purified full length human recombinant glucocorticoid receptor; purchased Panvera/Invitrogen PV4302
T1 sequence (P04150 1-777): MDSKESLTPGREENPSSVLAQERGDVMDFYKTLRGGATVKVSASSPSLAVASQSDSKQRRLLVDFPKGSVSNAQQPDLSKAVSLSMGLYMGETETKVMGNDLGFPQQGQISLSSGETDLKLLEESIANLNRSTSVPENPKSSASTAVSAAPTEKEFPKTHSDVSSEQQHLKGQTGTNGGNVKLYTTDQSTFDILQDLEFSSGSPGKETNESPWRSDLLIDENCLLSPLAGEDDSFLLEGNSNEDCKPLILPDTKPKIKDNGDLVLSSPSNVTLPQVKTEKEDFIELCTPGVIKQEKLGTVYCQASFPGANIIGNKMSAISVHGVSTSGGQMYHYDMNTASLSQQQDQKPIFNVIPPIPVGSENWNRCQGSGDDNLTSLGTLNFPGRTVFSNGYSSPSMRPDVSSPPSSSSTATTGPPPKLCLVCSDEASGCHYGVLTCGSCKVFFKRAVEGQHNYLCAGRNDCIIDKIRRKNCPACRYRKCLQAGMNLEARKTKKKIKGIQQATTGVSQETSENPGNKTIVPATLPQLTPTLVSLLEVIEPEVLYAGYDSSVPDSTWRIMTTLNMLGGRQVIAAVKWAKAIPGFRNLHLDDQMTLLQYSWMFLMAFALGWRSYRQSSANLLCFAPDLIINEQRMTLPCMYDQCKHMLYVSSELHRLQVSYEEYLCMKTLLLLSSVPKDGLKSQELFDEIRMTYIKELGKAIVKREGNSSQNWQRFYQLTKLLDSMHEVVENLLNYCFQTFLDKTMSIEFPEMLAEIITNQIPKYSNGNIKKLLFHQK
Summary of the method: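 Fluorescence polarization competition with partially purified full-length human recombinant GR, stabilizing peptide and Fluormone GS Far Red tracer in screening buffer pH 7.4; 3 hours at 22° C in the dark, read at 610–660 nm. IC50 from sigmoidal fit; Ki by Cheng-Prusoff.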

Row | SMILES | Ki
1 | COC(=O)c1ccc(-c2ccc([C@H](C)[C@](O)(c3cc4c(cc3F)OCC(=O)N4C)C(F)(F)F)c(Cl)c2)cc1F (relative stereo) [Example 136, 3′-Chloro-3-fluoro-4′-[3,3,3-trifluoro-2-(7-fluoro-4-methyl-3-oxo-3,4-dihydro-2H-benzo[1,4]oxazin-6-yl)-2-hydroxy-1-methyl-propyl]-biphenyl-4-carboxylic acid methyl ester] | 1.3 nM
2 | COC(=O)c1ccc(Oc2ccc([C@H](C)[C@](O)(c3cc4c(cc3F)OCC(=O)N4C)C(F)(F)F)c(Cl)c2)cc1Cl (relative stereo) [Example 138, 2-Chloro-4-{3-chloro-4-[3,3,3-trifluoro-2-(7-fluoro-4-methyl-3-oxo-3,4-dihydro-2H-benzo[1,4]oxazin-6-yl)-2-hydroxy-1-methyl-propyl]-phenoxy}-benzoic acid methyl ester] | 0.6 nM
3 | COC(=O)c1ccc(Oc2ccc([C@H](C)[C@](O)(c3cc(C)c(C#N)c(C)c3)C(F)(F)F)c(Cl)c2)cc1F (relative stereo) [Example 141, 4-{3-Chloro-4-[2-(4-cyano-3,5-dimethyl-phenyl)-3,3,3-trifluoro-2-hydroxy-1-methyl-propyl]-phenoxy}-2-fluoro-benzoic acid methyl ester] | 1.8 nM
4 | Cc1cc([C@@](O)([C@@H](C)c2ccc(Oc3ccc(C(=O)O)c(Cl)c3)cc2Cl)C(F)(F)F)cc(C)c1C#N (relative stereo) [Example 144, 2-Chloro-4-{3-chloro-4-[2-(4-cyano-3,5-dimethyl-phenyl)-3,3,3-trifluoro-2-hydroxy-1-methyl-propyl]-phenoxy}-benzoic acid] | 2.5 nM
5 | C[C@H](c1ccc(-c2ccc(C(=O)O)c(F)c2)cc1Cl)[C@@](O)(c1ccc(C#N)cc1)C(F)(F)F (relative stereo) [Example 152, 3′-Chloro-4′-[2-(4-cyano-phenyl)-3,3,3-trifluoro-2-hydroxy-1-methyl-propyl]-3-fluoro-biphenyl-4-carboxylic acid] | 46.2 nM
6 | C[C@H](c1ccc(-c2ccc(C(=O)O)c(F)c2)cc1Cl)[C@@](O)(c1cccc(C#N)c1)C(F)(F)F (relative stereo) [Example 153, 3′-Chloro-4′-[2-(3-cyano-phenyl)-3,3,3-trifluoro-2-hydroxy-1-methyl-propyl]-3-fluoro-biphenyl-4-carboxylic acid] | 23.2 nM
7 | C[C@H](c1ccc(Oc2ncc(C(=O)O)cc2Cl)cc1Cl)[C@@](O)(c1ccc(C#N)cc1)C(F)(F)F (relative stereo) [Example 155, 5-Chloro-6-{3-chloro-4-[2-(4-cyano-phenyl)-3,3,3-trifluoro-2-hydroxy-1-methyl-propyl]-phenoxy}-nicotinic acid] | 8.9 nM
8 | C[C@H](c1ccc(Oc2ccc(C(=O)O)c(Cl)n2)cc1Cl)[C@@](O)(c1ccc2c(c1)OCC(=O)N2C)C(F)(F)F (relative stereo) [Example 158, 2-Chloro-6-{3-chloro-4-[3,3,3-trifluoro-2-hydroxy-1-methyl-2-(4-methyl-3-oxo-3,4-dihydro-2H-benzo[1,4]oxazin-7-yl)-propyl]-phenoxy}-nicotinic acid] | 2.2 nM
9 | C[C@@H](c1ccc(Oc2ccc(C(=O)O)c(Cl)n2)cc1Cl)[C@](O)(c1ccc2c(c1)N(C)S(=O)(=O)N2C)C(F)(F)F (relative stereo) [Example 159, 2-Chloro-6-{3-chloro-4-[2-(1,3-dimethyl-2,2-dioxo-2,3-dihydro-1H-2λ6-benzo[1,2,5]thiadiazol-5-yl)-3,3,3-trifluoro-2-hydroxy-1-methyl-propyl]-phenoxy}-nicotinic acid] | 2.1 nM
10 | C[C@H](c1ccc(Oc2ccc(C(=O)O)c(Cl)c2)cc1Cl)[C@@](O)(c1ccc2c(c1)OCC(=O)N2C)C(F)(F)F (relative stereo) [Example 160, 2-Chloro-4-{3-chloro-4-[3,3,3-trifluoro-2-hydroxy-1-methyl-2-(4-methyl-3-oxo-3,4-dihydro-2H-benzo[1,4]oxazin-7-yl)-propyl]-phenoxy}-benzoic acid] | 1.3 nM
11 | C[C@@H](c1ccc(Oc2ccc(C(=O)O)c(Cl)c2)cc1Cl)[C@](O)(c1ccc2c(c1)N(C)S(=O)(=O)N2C)C(F)(F)F (relative stereo) [Example 161, 2-Chloro-4-{3-chloro-4-[2-(1,3-dimethyl-2,2-dioxo-2,3-dihydro-1H-2λ6-benzo[1,2,5]thiadiazol-5-yl)-3,3,3-trifluoro-2-hydroxy-1-methyl-propyl]-phenoxy}-benzoic acid] | 3.6 nM
12 | C[C@@H](c1ccc(-c2ccc(F)c(C(=O)O)c2)cc1Cl)[C@](O)(c1ccc2c(c1)N(C)S(=O)(=O)N2C)C(F)(F)F (relative stereo) [Example 162, 3′Chloro-4′-[2-(1,3-dimethyl-2,2-dioxo-2,3-dihydro-1H-2λ6-benzo[1,2,5]thiadiazol-5-yl)-3,3,3-trifluoro-2-hydroxy-1-methyl-propyl]-4-fluoro-biphenyl-3-carboxylic acid] | 10.8 nM
13 | C[C@@H](c1ccc(-c2ccc(C(=O)O)c(F)c2)cc1Cl)[C@](O)(c1ccc2c(c1)N(C)S(=O)(=O)N2C)C(F)(F)F (relative stereo) [Example 163, 3′-Chloro-4′-[2-(1,3-dimethyl-2,2-dioxo-2,3-dihydro-1H-2λ6-benzo[1,2,5]thiadiazol-5-yl)-3,3,3-trifluoro-2-hydroxy-1-methyl-propyl]-3-fluoro-biphenyl-4-carboxylic acid] | 35.1 nM

Further lines, results first:

Row | Ki | SMILES
14 | 1 nM | COC(=O)c1ccc(-c2ccc([C@@H](C)[C@@](O)(c3ccc4oc(=O)n(C)c4c3)C(F)(F)F)c(Cl)c2)c(F)c1 (relative stereo) [Example 125, 3′-Chloro-2-fluoro-4′-[3,3,3-trifluoro-2-hydroxy-1-methyl-2-(3-methyl-2-oxo-2,3-dihydro-benzooxazol-5-yl)-propyl]-biphenyl-4-carboxylic acid methyl ester]
15 | 0.5 nM | C[C@H](c1ccc(-c2ccc(C(=O)O)cc2F)cc1Cl)[C@@](O)(c1ccc2oc(=O)n(C)c2c1)C(F)(F)F (relative stereo) [Example 126, 3′-Chloro-2-fluoro-4′-[3,3,3-trifluoro-2-hydroxy-1-methyl-2-(3-methyl-2-oxo-2,3-dihydro-benzooxazol-5-yl)-propyl]-biphenyl-4-carboxylic acid]
16 | 1.7 nM | C[C@H](c1ccc(-c2ccc(C(=O)O)cn2)cc1Cl)[C@@](O)(c1ccc2oc(=O)n(C)c2c1)C(F)(F)F (relative stereo) [Example 128, 6-{3-Chloro-4-[3,3,3-trifluoro-2-hydroxy-1-methyl-2-(3-methyl-2-oxo-2,3-dihydro-benzooxazol-5-yl)-propyl]-phenyl}-nicotinic acid]
17 | 1.1 nM | CCOC(=O)COc1ccc(-c2ccc([C@@H](C)[C@@](O)(c3ccc4oc(=O)n(C)c4c3)C(F)(F)F)c(Cl)c2)cc1 (relative stereo) [Example 129, {3′-Chloro-4′-[3,3,3-trifluoro-2-hydroxy-1-methyl-2-(3-methyl-2-oxo-2,3-dihydro-benzooxazol-5-yl)-propyl]-biphenyl-4-yloxy}-acetic acid ethyl ester]
18 | 1.2 nM | COC(=O)c1ccc(-c2ccc([C@@H](C)[C@@](O)(c3ccc4oc(=O)n(C)c4c3)C(F)(F)F)c(Cl)c2)cc1OC (relative stereo) [Example 131, 3′-Chloro-3-methoxy-4′-[3,3,3-trifluoro-2-hydroxy-1-methyl-2-(3-methyl-2-oxo-2,3-dihydro-benzooxazol-5-yl)-propyl]-biphenyl-4-carboxylic acid methyl ester]
19 | 1.6 nM | C[C@H](c1ccc(Br)cc1Cl)[C@@](O)(c1ccc2c(c1)oc(=O)n2C)C(F)(F)F (relative stereo) [Example 133, 6-[2-(4-Bromo-2-chloro-phenyl)-1-hydroxy-1-trifluoromethyl-propyl]-3-methyl-3H-benzooxazol-2-one]
20 | 109 nM | C[C@H](c1ccc(-c2ccc(C(=O)O)c(F)c2)cc1Cl)[C@@](O)(c1ccc2c(c1)oc(=O)n2C)C(F)(F)F (relative stereo) [Example 134, 3′-Chloro-3-fluoro-4′-[3,3,3-trifluoro-2-hydroxy-1-methyl-2-(3-methyl-2-oxo-2,3-dihydro-benzooxazol-6-yl)-propyl]-biphenyl-4-carboxylic acid]
21 | 154 nM | C[C@H](c1ccc(-c2ccc(C(=O)O)c(Cl)c2)cc1Cl)[C@@](O)(c1ccc2c(c1)oc(=O)n2C)C(F)(F)F (relative stereo) [Example 135, 3,3′-Dichloro-4′-[3,3,3-trifluoro-2-hydroxy-1-methyl-2-(3-methyl-2-oxo-2,3-dihydro-benzooxazol-6-yl)-propyl]-biphenyl-4-carboxylic acid]
